Measured values as given in US20110224242A1, “STYRLYQUINOLINES, THEIR PROCESS OF PREPARATION AND THEIR THERAPEUTIC USES” (BIOALLIANCE PHARMA, priority 2008, published 2011).
Read-outs that look alike come from different tables or passages of the source.

Key:
[1] = system: wild type HIV-1 virus (NL 4.3 strains); experiment: Antiviral activity assay CEM cells (p24 ELISA); format: cell-based; conditions: Human immunodeficiency virus 1, CCRF-CEM, read-out: CEM
Procedure: The activity is determined by infecting CEM cells with a wild type HIV-1 virus (NL 4.3 strains at 3 ng) on cells in presence or absence of drugs. A serial dilution of drugs is done to evaluate the EC50. […] After 48 hours incubation, the quantification is done by the evaluation of the viral protein p24 with a commercial Elisa Kit. P24 is a protein essential to the replication virus cycle. The quantification of this enzyme is proportional to the amount of virus produced by the infected cells.

HBX2 HIV integrase [2] = target: T1, HBX2 HIV integrase (Human immunodeficiency virus type 1 group M subtype B, UniProt P04585); experiment: Strand transfer assay; format: biochemical
T1 construct: contains the cDNA encoding the HBX2 HIV integrase; His tag (N, cleaved yes); made in house; host or cells: Escherichia coli BL21 (DE3)
Procedure: The pET-15b-IN plasmid contains the cDNA encoding the HBX2 HIV integrase. His-tagged integrase protein was overexpressed in Escherichia coli BL21 (DE3) and purified under native conditions. Briefly, at an OD of 0.8, fusion protein expression was induced in bacterial cultures by the addition of IPTG (1 mM). Cultures were incubated for 3 h at 37° C., of ter which cells were centrifuged. The cell pellet was resuspended in ice-cold buffer A [20 mM Ths-HCl (pH 8), 1 M NaCl, 4 mM β-mercaptoethanol, and 5 mM imidazole], treated with lysozyme for 1 h on ice, and sonicated. After centrifugation (30 min at 10 000 rpm), the supernatant was filtered (0.45 μm) and incubated for at least 2 h with Ni-NTA agarose beads (Pharmacia). The beads were washed twice with 10 volumes of buffer A, 10 volumes of buffer A with 50 mM imidazole, and 10 volumes of buffer A with 100 mM imidazole. His-tagged integrase was then eluted with buffer A supplemented with 50 μM ZnSO4 and 1 M imidazole. […]
Processing, strand transfer reactions were performed using U5A-U5B-2, in buffer containing 20 mM Tris (pH 7.2), 50 mM NaCl, 10 mM DTT, 1 OmM MgCl2. […] Gels were analyzed using a STORM Molecular Dynamics phosphorimager and quantified with Image Quant™ 4.1 software.

in vitro = format: cell-based; conditions: human
Procedure: The cytotoxicity of compounds was evaluated using un-infected and infected Hel_a-P4 cell and CEM leukemia cells. CEM cell were obtained from the American Type Tissue Collection (Rockville, Md.).
A serial dilution of drugs is done to evaluate the cytotoxicity concentration and is identified by CC50 (concentration of drug which induces 50% of cytotoxicity)
The HeLa-P4 was cultured in the presence or absence of compounds for 2 days. After this time period, cells were cultivated with MTT for 3 hours, further the medium is removed. And the lysis buffer is incubated for 1 hour, followed by plate reading at 540 nm in a microplate reader.

HBX2 HIV integrase [3] = target: T1, HBX2 HIV integrase; experiment: 3' LTR processing assay; format: biochemical
Procedure: The pET-15b-IN plasmid contains the cDNA encoding the HBX2 HIV integrase. His-tagged integrase protein was overexpressed in Escherichia coli BL21 (DE3) and purified under native conditions. Briefly, at an OD of 0.8, fusion protein expression was induced in bacterial cultures by the addition of IPTG (1 mM). Cultures were incubated for 3 h at 37° C., of ter which cells were centrifuged. The cell pellet was resuspended in ice-cold buffer A [20 mM Ths-HCl (pH 8), 1 M NaCl, 4 mM β-mercaptoethanol, and 5 mM imidazole], treated with lysozyme for 1 h on ice, and sonicated. After centrifugation (30 min at 10 000 rpm), the supernatant was filtered (0.45 μm) and incubated for at least 2 h with Ni-NTA agarose beads (Pharmacia). The beads were washed twice with 10 volumes of buffer A, 10 volumes of buffer A with 50 mM imidazole, and 10 volumes of buffer A with 100 mM imidazole. His-tagged integrase was then eluted with buffer A supplemented with 50 μM ZnSO4 and 1 M imidazole. The integrase concentration was adjusted to 0.1 mg/mL in buffer A. The fusion protein was cleaved using thrombin and dialyzed overnight against 20 mM Ths-HCl (pH 8), 1 M NaCl, and 4 mM (3-mercaptoethanol. After removal of biotinylated thrombin by incubation with streptavidin-agarose magnetic beads (Novagen, Madison, Wis.), a second dialysis was performed for 2 h against 20 mM Ths-HCl (pH 8), 1 M NaCl, 4 mM mercaptoethanol, and 20% (v/v) ethylene glycol. Fractions were aliquoted and rapidly frozen at −80° C.
Oligonucleotides U5B (5′-[…]-3′), U5B-2 (5′-GTGTGGAAAATCTCTAGCA-3′), U5A (5′-[…]-3′) were purchased from Eurogentec (Liege, Belgium) and further purified on an 18% denaturing acrylamide/urea gel. For processing, strand transfer, 100 pmol of U5B, U5B-2, respectively, were radiolabeled using T4 polynucleotide kinase and 50 μCi of [γ-32P]ATP (3000 Ci/mmol). The T4 kinase was heat inactivated, and unincorporated nucleotides were removed using a Sephadex G-10 column (GE Healthcare). NaCl was added to a final concentration of 0.1 M, and complementary unlabeled strand USA was added to either U5B or U5B-2. The mixture was heated to 90° C. for 3 min, and the DNA was annealed by slow cooling.
Processing reaction was performed using U5A-U5B, in buffer containing 20 mM Tris (pH 7.2), 50 mM NaCl, 10 mM DTT, and 10 mM MgCl2. […] The reactions were stopped by phenol/chloroform extraction, and DNA products were precipitated with ethanol. The products were separated in TE containing 7 M urea and electrophoresed on an 18% denaturing acrylamide/urea gel. Gels were analyzed using a STORM Molecular Dynamics phosphorimager and quantified with Image Quant™ 4.1 software.

[4] = Chemical stability at pH between 1 and 7; format: physicochemical
[5] = Stability by HPLC in PEG400 and Vitamine E-TPGS/PEG 400 mixtures; format: physicochemical
Procedure: The second stability assay consists in the assessment according to standard HPLC analysis protocols over 24 hrs in PEG400 and Vitamine E-TPGS/PEG 400 mixtures, by focusing on the evolution of the concentration and peak purity of the compound. Compounds were dissolved in appropriate amounts of solvent and let under stirring protected from light for 24 hrs. Aliquots were transferred into eppendorfs and centrifuged at 10 000 g for 10 min. Supernatants were collected and appropriately diluted in DMSO/mobile phase mixtures before HPLC analysis. The Waters HPLC analysis system equipped with an ultraviolet detector and a Waters Symmetry Shield C18 column of 2.1 mm×50 mm ([…]) was used. A mobile phase of water/acetic acid 0.1% (Solvant A): Acetonitrile/acetic acid 0.1% (solvent B) mixture or a water/trifluoroacetic acid 0.1% (Solvant A): Acetonitrile/trifluoroacetic acid 0.1% (solvent B) mixture in the case of compound FZ41 was pumped according to a binary gradient described below, at a flow rate of 0.4 ml/min.

[6] = system: wild type HIV-1 virus (NL 4.3 strains); experiment: Antiviral activity assay on Hela P4 cells (beta-galactosidase, CPRG); format: cell-based; conditions: read-out: P4 IC50
Procedure: The antiviral activity is determined by infecting HelaP4 cells with a wild type HIV-1 virus (NL 4.3 strains at 3 ng) on cells in presence or absence of drugs. A serial dilution of drugs is done to evaluate the EC50. The effective concentration is the concentration of product at which virus replication is inhibited by 50 percent. After 48 hours incubation, the quantification is done by the evaluation of β-Galactosidase produced by the infected Hela P4 cells. The viral activity is evaluated by colorimethc assay, CPRG, followed by plate reading at 570 nm with a reference of 690 nm. The CPRG test is a colorimetric assay which allows to quantity the β-galactosidase produced by HIV-1 infected indicator cells (the β-Gal gene being under the control of the HIV-1 LTR).

[7] = Stability in Hepes buffer 0.5 M pH 7.5 (UV spectrophotometry); format: physicochemical; conditions: HEPES 0.5 M pH 7.5, 37°, 50 μM (SQE94 and 79 at 25 μM)
Procedure: 2.1. Hepes Buffer 0.5M, pH 7.5. 16 μl of drug at 25 mM, in 8 ml of Hepes Buffer. Different time points were done, Oh, 2 h, 4 h, 24 h, and 48 h.
Stability of the compounds was performed in HEPES Buffer 0.5 M (pH 7.5) at 37 O, at a concentration of 50 μM. Compounds SQE94 and 79 were tested at a concentration of 25 μM to avoid parasite precipitation phenomena. Typically, stock solutions of compounds in DMSO (25 mM) were diluted in HEPES Buffer. Dilutions were stored at 37° C., protected from light. Sampling was done at different time points. Samples were analyzed on an UV-spectrophotometer using a wavelength scan between 200 and 700 nm. Superposition of UV-spectra gives the qualitative aspect of the stability of the drug. Based on the Beer-Lambert law, percentage of degradation of the drug over time was calculated, when placed at the maximum absorption wavelength.

[8] = Solubility of compound SQE94 in pH-buffers; format: physicochemical; conditions: compound alone, room temperature, 24 h
Procedure: Solubility of compound SQE94 was determined in pH-buffers at pH values of 5, 6 and 7. 10 mg of SQE94 are added to 10 ml of each pH-buffer. Each solution is stirred at room temperature, away from light, for 24 h, then centrifugated. The amount of dissolved compound is determined by HPLC analysis.

[9] = CEM cells, HIV-1 NL 4.3, 48 hours, p24
[10] = Human immunodeficiency virus 1, HeLaP4, HeLa P4 cells, HIV-1 NL 4.3, 48 hours
[11] = Human immunodeficiency virus 1, HeLaP4, 48 h

Row | Structure (SMILES) | EC50 [1, 9] [nM] | IC50 (HBX2 HIV integrase [2]) [nM] | IC50 at 2 days (in vitro) [nM] | IC50 (HBX2 HIV integrase [3]) [nM] | degradation rate ([4]; within less than 24 hrs, pH between 1 and 7) | degradation ([5]; within only 3 hrs, mixtures of excipients) | IC50 [6, 10] [nM] | % of degradation ([7]; 2 hrs) [%] | % of degradation ([7]; 4 hrs) [%] | % of degradation ([7]; 24 hrs) [%] | EC50 ([1]; 48 h) [nM] | melting point [°C] | IC50 [6, 11] [nM] | chemical profile stability ([4]; over 24 hrs at pH between 1 and 7) | degradation ([5]; over 24 hrs at room temperature in several mixtures of excipients) | Dissolved compound SQE94 ([8]; pH5 buffer) [µg/mL] | Dissolved compound SQE94 ([8]; pH6 buffer) [µg/mL] | Dissolved compound SQE94 ([8]; pH7 buffer) [µg/mL]
1 | COc1cc(/C=C/c2ccc3ccc(C(=O)O)c(O)c3n2)cc(O)c1O [FZ41, reference compound] | 25000 | 1700 | > 100000 | 700 | 50-60% | at least 10% | 5000 | 31.1 | 59.6 | 64.6 |  |  |  |  |  |  |  | 
2 | CC(=O)c1ccc(O)c2nc(/C=C/c3cc(O)c(O)cc3O)ccc12 [SQE74, 1-{2-[2(E)-(2,4,5-thhydroxyphenyl)-vinyl]-8-hydroxy-quinolin-5-yl}-ethanone] | 350 |  | 11700 | 225 |  |  | 11800 | 17.2 | 26.1 | 24.1 |  |  |  |  |  |  |  | 
3 | CC(=O)c1ccc(O)c2nc(/C=C/c3cc(O)c(O)c(O)c3)ccc12 [SQE75, 1-{2-[2(E)-(3,4,5-thhydroxyphenyl)-vinyl]-8-hydroxy-quinolin-5-yl}-ethanone] | 24700 |  | > 100000 | 510 |  |  | 9600 | 15.7 | 17.5 | 18.7 |  |  |  |  |  |  |  | 
4 | CC(=O)c1ccc(O)c2nc(/C=C/c3cc(O)c(O)c([N+](=O)[O-])c3)ccc12 [SQE79, 1-{2-[2(E)-(3,4-dihydroxy, 5-nitrophenyl)-vinyl]-8-hydroxy-quinolin-5-yl}-ethanone] | 400 |  | 4200 | 225 |  |  | 4600 | 19.2 | 26.9 | 42.9 |  |  |  |  |  |  |  | 
5 | CC(=O)c1ccc(O)c2nc(/C=C/c3cc(O)c(O)c(Cl)c3)ccc12 [SQE86, (E)-1-(2-(3-chloro-4,5-dihydroxystyryl)-8-hydroxyquinolin-5-yl)ethanone] |  |  | 15000 | 530 |  |  |  | 12.1 | 12.5 | 22.4 | 500 | 256 to 258 | 1000 |  |  |  |  | 
6 | CC(=O)c1ccc(O)c2nc(/C=C/c3ccc(O)c(C(=O)O)c3)ccc12 [SQE89, (E)-5-(2-(5-acetyl-8-hydroxyquinolin-2-yl)vinyl)-2-hydroxybenzoic acid] |  |  | 12600 | 560 |  |  |  | <5 | <5 | <5 |  | 266 to 268 | 1000 |  |  |  |  | 
7 | COc1cc(/C=C/c2ccc3c(C(C)=O)ccc(O)c3n2)cc([N+](=O)[O-])c1O [SQE94, 1-{2-[2(E)-(3-nitro, 4-hydroxy, 5-methoxyphenyl)-vinyl]-8-hydroxy-quinolin-5-yl}-ethanone] |  |  | 56000 | 724 |  |  | 1600 | <5 | 8.2 | 30.8 |  |  |  | very stable chemical profiles | less than 10% | 1.4 | 1.4 | 5.5
8 | CC(=O)c1ccc(O)c2nc(/C=C/c3ccc(C(=O)O)cc3[N+](=O)[O-])ccc12 [SQE96, 4-[2(E)-(5-Acetyl-8-hydroxy-quinolin-2-yl)-vinyl]-5-nitro-benzoic acid] |  |  | > 100000 | 2300 |  |  | 40000 | <5 | <5 | <5 |  |  |  |  |  |  |  | 
